The text below walks through data of ChEMBL document CHEMBL3259695 (J Med Chem, 2014).

Assay [1] addresses D(3) dopamine receptor (Rattus norvegicus, UniProt P19020). The assay is described as follows: Displacement of [3H]R-(+)-7-OHDPAT from dopamine D3 receptor in Sprague-Dawley rat ventral striatum after 90 mins.
The target of assay [2] is D(2) dopamine receptor (Rattus norvegicus, UniProt P61169). The assay is described as follows: Displacement of [3H]Spiperone from dopamine D2-like receptor in Sprague-Dawley rat caudate putamen after 90 mins. It counts as tissue-based.
Sequence of D(2) dopamine receptor (Rattus norvegicus, UniProt P61169) (P61169 whole entry): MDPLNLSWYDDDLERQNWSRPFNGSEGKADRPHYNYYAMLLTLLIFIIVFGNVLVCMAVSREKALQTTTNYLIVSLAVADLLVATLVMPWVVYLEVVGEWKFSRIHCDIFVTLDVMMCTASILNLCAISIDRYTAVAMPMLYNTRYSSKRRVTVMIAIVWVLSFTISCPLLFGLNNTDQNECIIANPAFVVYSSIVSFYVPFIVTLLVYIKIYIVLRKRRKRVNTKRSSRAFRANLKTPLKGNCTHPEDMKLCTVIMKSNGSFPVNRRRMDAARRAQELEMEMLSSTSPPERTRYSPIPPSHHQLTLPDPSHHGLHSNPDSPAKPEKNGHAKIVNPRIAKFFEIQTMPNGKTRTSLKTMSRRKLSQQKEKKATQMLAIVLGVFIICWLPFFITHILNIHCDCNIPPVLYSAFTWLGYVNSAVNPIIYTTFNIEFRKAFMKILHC
A short description of assay [3]: Displacement of [3H]SCH 23390 from dopamine D1-like receptor in Sprague-Dawley rat caudate putamen after 90 mins. It is filed as tissue-based. In general terms: Loss of bound radioactivity is the signal in a displacement assay; it reports binding, not function.
The species named for assay [4] is Rattus norvegicus. Kind of assay: Selectivity ratio of Ki for dopamine D2-like receptor in Sprague-Dawley rat caudate putamen to Ki for dopamine D3 receptor in Sprague-Dawley rat ventral striatum. It counts as tissue-based.
The species named for assay [5] is Rattus norvegicus. The assay is described as follows: Selectivity ratio of Ki for dopamine D1-like receptor in Sprague-Dawley rat caudate putamen to Ki for dopamine D3 receptor in Sprague-Dawley rat ventral striatum. It counts as tissue-based.
Assay [6] deals with T1, D(3) dopamine receptor (Homo sapiens, UniProt P35462). Kind of assay: Displacement of [3H]N-methylspiperone from human dopamine D3 receptor expressed in HEK293 cells after 1 hr by liquid scintillation counting analysis. It counts as cell-based.
T1 sequence (P35462 whole entry): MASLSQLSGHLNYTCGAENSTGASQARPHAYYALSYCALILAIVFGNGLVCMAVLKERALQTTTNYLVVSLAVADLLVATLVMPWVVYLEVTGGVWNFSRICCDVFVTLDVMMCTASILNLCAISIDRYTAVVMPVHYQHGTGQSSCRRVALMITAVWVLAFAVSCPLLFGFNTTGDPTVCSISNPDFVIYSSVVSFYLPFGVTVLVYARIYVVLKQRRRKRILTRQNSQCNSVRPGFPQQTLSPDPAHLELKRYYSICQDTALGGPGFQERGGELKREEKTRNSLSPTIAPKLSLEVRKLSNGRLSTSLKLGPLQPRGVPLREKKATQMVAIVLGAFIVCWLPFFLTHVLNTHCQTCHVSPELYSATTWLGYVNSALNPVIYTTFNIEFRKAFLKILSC
Assay [7] deals with D(2) dopamine receptor (Homo sapiens, UniProt P14416). Kind of assay: Displacement of [3H]N-methylspiperone from human dopamine D2 receptor expressed in HEK293 cells after 1 hr by liquid scintillation counting analysis. It is filed as cell-based.
Sequence of D(2) dopamine receptor (Homo sapiens, UniProt P14416) (P14416 whole entry): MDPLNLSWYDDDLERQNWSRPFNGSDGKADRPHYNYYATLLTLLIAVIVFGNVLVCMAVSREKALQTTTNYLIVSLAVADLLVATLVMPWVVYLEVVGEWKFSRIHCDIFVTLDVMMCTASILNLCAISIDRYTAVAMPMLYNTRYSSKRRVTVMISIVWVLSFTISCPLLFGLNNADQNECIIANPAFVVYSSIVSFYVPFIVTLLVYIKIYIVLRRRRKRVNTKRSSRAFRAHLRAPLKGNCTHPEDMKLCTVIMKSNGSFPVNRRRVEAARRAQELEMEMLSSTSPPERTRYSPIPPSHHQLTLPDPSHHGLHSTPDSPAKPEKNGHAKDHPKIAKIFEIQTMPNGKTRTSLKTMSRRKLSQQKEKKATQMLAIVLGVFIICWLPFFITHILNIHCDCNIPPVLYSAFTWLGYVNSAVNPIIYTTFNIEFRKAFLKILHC
Assay [8] has as its target T1, D(3) dopamine receptor. As to conditions: U2OS.
Assay [9] has as its target T1, D(3) dopamine receptor.

Sequence of D(3) dopamine receptor (Rattus norvegicus, UniProt P19020) (P19020 whole entry): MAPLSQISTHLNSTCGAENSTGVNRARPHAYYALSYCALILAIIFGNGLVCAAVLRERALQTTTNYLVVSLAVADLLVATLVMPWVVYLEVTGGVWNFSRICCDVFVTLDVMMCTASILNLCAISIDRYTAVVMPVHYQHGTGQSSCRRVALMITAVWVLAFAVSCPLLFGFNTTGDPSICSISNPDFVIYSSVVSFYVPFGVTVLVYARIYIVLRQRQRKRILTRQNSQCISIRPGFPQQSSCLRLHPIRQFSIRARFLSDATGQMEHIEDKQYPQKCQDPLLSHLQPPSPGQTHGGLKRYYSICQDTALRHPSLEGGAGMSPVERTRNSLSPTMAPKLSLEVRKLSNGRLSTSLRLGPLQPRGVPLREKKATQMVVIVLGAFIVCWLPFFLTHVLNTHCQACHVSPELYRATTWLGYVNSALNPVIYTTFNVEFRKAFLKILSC

Broadly, the Ki is a dissociation constant, usually derived from enzyme kinetics or from competition with a known ligand. Higher therefore signals a looser hold on the target. For `CCCN(CC[C@]1(O)C[C@@H](NC(=O)c2ccc3ccccc3c2)C1)[C@H]1C[C@@H]1c1ccccc1`, the Ki came to 108 nM in assay [1], 2140 nM in [2] and 3090 nM in [3]. The Ratio Ki in [4] was determined as 20; in assay [5] it was 29.
The like results for `CCCN(CC[C@]1(O)C[C@@H](NC(=O)c2ccc3ccccc3c2)C1)[C@@H]1C[C@H]1c1ccccc1` were, in that order, 44 nM, 1310 nM, 2820 nM, 30 and 64.
For `CCCN[C@H]1C[C@@H]1c1ccccc1` the same measures were 1170 nM, 95600 nM, 123000 nM, 82 and 105.
In [6], `CCN1CCC[C@H]1CNC(=O)c1c(O)c(Cl)cc(Cl)c1OC` [RACLOPRIDE] returned a Ki of 13.4 nM.
In [3], `CCCN(CC[C@]1(O)C[C@@H](NC(=O)c2ccc3ccccc3c2)C1)C1CC1c1ccc(Cl)cc1` (mixture of isomers) showed a Ki of 2200 nM. This counts as single-digit micromolar.
As to `CCCN(CC[C@]1(O)C[C@@H](NC(=O)c2ccc3ccccc3c2)C1)[C@H]1C[C@@H]1c1cccc(Cl)c1` (racemic), the Ki in assay [2] is greater than 300000 nM; in assay [3] it was 1800 nM. The Ratio Ki in assay [5] came to 64.
`N[C@@H]1C[C@H]1c1ccccc1.N[C@H]1C[C@@H]1c1ccccc1` (racemic) [TRANYLCYPROMINE] came in with an inhibition constant Ki in [2] of 58700 nM.
As to `Cc1ncoc1-c1nnc(SCCCN2CC3CC3(c3ccc(C(F)(F)F)cc3F)C2)n1C` (stereo not drawn), the inhibitory constant (Ki) in assay [1] was found to be 46 nM; in assay [3], 38800 nM.
`CCCN(CC[C@]1(O)C[C@@H](NC(=O)c2ccc3ccccc3c2)C1)[C@H]1C[C@@H]1c1ccccc1Cl` (racemic) returned a Ki in assay [3] of 743 nM. Further, the Ratio Ki in [4] amounted to 26; in assay [5], 39.
Take `CCCN(CC[C@]1(O)C[C@@H](NC(=O)c2ccc3ccccc3c2)C1)[C@H]1C[C@@H]1c1ccc(Cl)cc1`: the Ki in assay [1] is 457 nM; in assay [2], greater than 100000 nM; in assay [3], 20700 nM.
On to `CCCN[C@@H]1C[C@H]1c1ccccc1`, for which the Ki in assay [1] was 1200 nM; in [2] it was 96600 nM; in [3], 90600 nM. The Ratio Ki in [4] was found to be 81; in assay [5] it was 76.
The compound `CCc1cc(Cl)c(OC)c(C(=O)NC[C@@H]2CCCN2CC)c1O` [ETICLOPRIDE] had a Ki in [7] of 0.086 nM.
The compound `CCCN[C@H]1CCc2nc(N)sc2C1` displayed an ED50 in [8] of 3.7 nM.
The IC50 is the concentration needed to halve the response being measured. With `CCCN(CC[C@]1(O)C[C@@H](NC(=O)c2ccc3ccccc3c2)C1)[C@@H]1C[C@H]1c1ccc(Cl)cc1`, the Ki was 2.7 nM in assay [1]; greater than 300000 nM in [2]; 25800 nM in assay [3]; 2.8 nM in [6]; 623 nM in [7]. The IC50 in assay [9] came to 327 nM. For the same compound, the ED50 in [8] is greater than 100000 nM.
